# According to the supplement of paper PMC11208160:
# Assay: recombinant barcode read abundance after kanamycin selection (control-corrected) (log10(CPM+1)); higher = more efficient recombination; sequences stand for … in AGTGCAGAGAAAATCGGCCAGTTTTCTCTGCCTGCAGTCCGCATGCCGT…AGATTTATGCAGCGGACTGCCTTTCTCCCAAAGTGATAAACCGGACAGTATCATGGACCGGTTTTCCCGGTAATCCGTATTTGCAAGGTTGGTTTCACT; site = the 11-nt target
# Procedure, shortened: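 Targets were screened in pooled form in E. coli against IS621 bridge RNA target-binding loops. Recombination efficiency is based on barcode counts at recombinant junctions in counts per million, averaged and corrected for the control. Numbers are shown as log10(CPM+1), with duplicate plates on chloramphenicol/ampicillin LB agar (control) or chloramphenicol/ampicillin/kanamycin with 0.1 mM IPTG.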
# 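Also: IS621 recombinase and bridge RNA in Escherichia coli cells.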
row,Sequence,recombinant barcode read abundance (log10)
1,TGCGCCTCTTGGGTTCTAACCTGTTGCTG (site TGCGCCTCTCA),1.26
2,CGAACCGCTTGGGTTCTAACCTGTTGCCT (site CAAACCGCTAG),0.26
3,GTTGGAGCTTGGGTTCTAACCTGTTGCAG (site GTTGGAGCTCT),2.24
4,CCAGATTCTTGGGTTCTAACCTGTTGCCT (site CCAGATTCTAG),0.206
5,TGCCCGCCTTGGGTTCTAACCTGTTGCCT (site CGCCCGCCTAG),0.102
6,GACTCTCCTTGGGTTCTAACCTGTTGCAT (site GACTCTCCTAC),1.45
7,GGACGATCTTGGGTTCTAACCTGTTGCCT (site GGACTATCTAG),0.357
8,CTCGTAACTTGGGTTCTAACCTGTTGCCT (site CTCGTCACTAG),0.0602
9,CTAGAAGCTTGGGTTCTAACCTGTTGCGT (site CTAGGAGCTAC),1.05
10,ATCAAGACTTGGGTTCTAACCTGTTGCCT (site ATAAAGACTAG),0.266
11,AATGAATCTTGGGTTCTAACCTGTTGCCT (site AATGAATCTAG),0.312
12,CCTCCCTCTTGGGTTCTAACCTGTTGCTG (site CCTCCCTCTTA),0.036
13,CATGGGCCTTGGGTTCTAACCTGTTGCCT (site CGTGGGCCTAG),0.151
14,TACGGGGCTTGGGTTCTAACCTGTTGCCT (site TACGAGGCTAG),0.166
15,ATAGTCCCTTGGGTTCTAACCTGTTGCCT (site ATAGTCCCTAG),2.25
16,CTACGGTCTTGGGTTCTAACCTGTTGCAC (site CTACGCTCTGT),0.238
17,TATATATCTTGGGTTCTAACCTGTTGCAT (site AGGTGTCCTTC),0.112
18,CACAAAGCTTGGGTTCTAACCTGTTGCCT (site CACACAGCTAG),0.143
19,AGTCGTACTTGGGTTCTAACCTGTTGCCT (site AGCCGTACTAG),0.213
20,CGCTGATCTTGGGTTCTAACCTGTTGCCT (site GGCTGATCTAG),0.14
21,CAAGAGTCTTGGGTTCTAACCTGTTGCTT (site CAAGAGTCTAA),2.26
22,GGCATCCCTTGGGTTCTAACCTGTTGCCT (site GGCATCCCTAG),0.337

row,Sequence,recombinant barcode read abundance (log10)
1,CACATCGCTTGGGTTCTAACCTGTTGCCT (site TACTTCGCTAG),0.155
2,AACATTGCTTGGGTTCTAACCTGTTGCCT (site AACAGTGCTAG),0.372
3,ATCCCATCTTGGGTTCTAACCTGTTGCCT (site ATTCCATCTAG),0.0512
4,CACTGTTCTTGGGTTCTAACCTGTTGCCT (site CACTGATCTAG),0.325
5,GCTCGGGCTTGGGTTCTAACCTGTTGCGG (site ATGTCCTCTTG),0.0124
6,CAGTGGACTTGGGTTCTAACCTGTTGCCT (site CAATGGACTAG),0.961
7,ATTTCGACTTGGGTTCTAACCTGTTGCCT (site ACTTCGACTAG),0.044
8,GAGGCGGCTTGGGTTCTAACCTGTTGCTT (site GAGTCGGCTAA),0.0862
9,TGGCACTCTTGGGTTCTAACCTGTTGCTT (site AGGCACTCTCA),0.177
10,GAGCGCTCTTGGGTTCTAACCTGTTGCTA (site GAGCGCTCTAA),0.167
11,AGACTCCCTTGGGTTCTAACCTGTTGCCT (site AGCCTCCCTAG),0.223
12,CCACACACTTGGGTTCTAACCTGTTGCCT (site CAATACACTAG),0.0103
13,TGACTCTCTTGGGTTCTAACCTGTTGCCT (site TTACTCTCTAG),0.228
14,GGTATGACTTGGGTTCTAACCTGTTGCCT (site GGTATGACTAG),0.956
15,ATCCACCCTTGGGTTCTAACCTGTTGCCT (site ATCCAACCTAG),0.15
16,GGAGAAGCTTGGGTTCTAACCTGTTGCCT (site GGAGACGCTAG),0.569
17,ACAGGTTCTTGGGTTCTAACCTGTTGCCT (site ACAGGTTCTAG),2.24
18,AGCGCTCCTTGGGTTCTAACCTGTTGCCT (site ACCGCTCCTAG),0.305
19,TGCCGACCTTGGGTTCTAACCTGTTGCCT (site TGCGGAGCTAG),0.185
20,CACTTCCCTTGGGTTCTAACCTGTTGCGA (site CACTTCCCTTC),0.492
21,CGTACCTCTTGGGTTCTAACCTGTTGCTG (site CGTACCTCTTA),0.0203
22,GTCAATTCTTGGGTTCTAACCTGTTGCCT (site GTCAATTCTAG),0.684

row,Sequence,recombinant barcode read abundance (log10)
1,GTGTGAACTTGGGTTCTAACCTGTTGCCG (site GAGTTAACTCG),0.0504
2,GTCCCTCCTTGGGTTCTAACCTGTTGCAT (site GTCCCTCCTAT),1.96
3,CGGGGTCCTTGGGTTCTAACCTGTTGCTA (site CGGGGTCCTTA),2.5
4,CGGCACACTTGGGTTCTAACCTGTTGCGG (site CGGAACACTCC),0.06
5,CTCCATCCTTGGGTTCTAACCTGTTGCCT (site CTCCATTCTAG),0.0176
6,GGGTAACCTTGGGTTCTAACCTGTTGCCT (site CGGTAACCTAG),0.064
7,GATAGGACTTGGGTTCTAACCTGTTGCGT (site TATAGGACTAC),2.03
8,GTGATCCCTTGGGTTCTAACCTGTTGCTG (site GTGAACTCTCA),0.0648
9,TGCCCGCCTTGGGTTCTAACCTGTTGCCT (site AGCCCGCCTAG),0.0736
10,GTGACCGCTTGGGTTCTAACCTGTTGCCT (site GTAACCGCTAG),2
11,ACTAGGTCTTGGGTTCTAACCTGTTGCTA (site ACTAGCTCTTA),0.0718
12,GATAGTGCTTGGGTTCTAACCTGTTGCCT (site GATAGTTCTAG),0.0158
13,CAGCCCTCTTGGGTTCTAACCTGTTGCCT (site CAGCCCTCTAG),2.59
14,AGTCACACTTGGGTTCTAACCTGTTGCAG (site TTGTGAGCTGC),0.153
15,TCCGAAGCTTGGGTTCTAACCTGTTGCCT (site TCCGAAGCTAG),0.487
16,ATATGCGCTTGGGTTCTAACCTGTTGCCG (site ATATGGGCTCG),0.0781
17,CTCGACCCTTGGGTTCTAACCTGTTGCAT (site GGGCCTGCTTG),1.66
18,CTACGTCCTTGGGTTCTAACCTGTTGCTC (site CTACGTCCTGA),0.91
19,ACCGCTTCTTGGGTTCTAACCTGTTGCCT (site AACGCTTCTAG),0.096
20,GCCGGGTCTTGGGTTCTAACCTGTTGCTT (site GCTGGGTCTAA),0.337
21,AGCAGAGCTTGGGTTCTAACCTGTTGCGG (site AGCAGAGCTCT),1.1
22,AACAGGGCTTGGGTTCTAACCTGTTGCCG (site AACAGGGCTCG),1.22

row,Sequence,recombinant barcode read abundance (log10)
1,GTTGGAGCTTGGGTTCTAACCTGTTGCAG (site TATGGAGCTCT),0.146
2,CGCTGCCCTTGGGTTCTAACCTGTTGCTT (site CGCTGCCCTAA),0.113
3,GCATGGACTTGGGTTCTAACCTGTTGCAG (site GCAAGGACTCT),0.878
4,ACATGTCCTTGGGTTCTAACCTGTTGCTT (site ACATGTCCTAA),0.333
5,ATAGGACCTTGGGTTCTAACCTGTTGCCA (site ATAGGACCTCG),0.653
6,GACACTTCTTGGGTTCTAACCTGTTGCCT (site GTCAATTCTAG),0.0949
7,TTAGTCGCTTGGGTTCTAACCTGTTGCCT (site TTAGTTGCTAG),0.0472
8,GTTTGGTCTTGGGTTCTAACCTGTTGCCT (site GTTTGATCTAG),0.285
9,AGTCCGTCTTGGGTTCTAACCTGTTGCAT (site AGTCCGTCTAT),1.29
10,ACTTTGCCTTGGGTTCTAACCTGTTGCCT (site ACCTTGCCTAG),0.0879
11,ACAAAACCTTGGGTTCTAACCTGTTGCCT (site ACAAATCCTAG),0.0655
12,TCGGAGTCTTGGGTTCTAACCTGTTGCAT (site TCGGAGTCTAC),1.03
13,GCGGCTCCTTGGGTTCTAACCTGTTGCAT (site GCGCCTCCTAT),0.0751
14,CGGAGCCCTTGGGTTCTAACCTGTTGCAT (site CGCAGCCCTAT),0.0297
15,ATGTATTCTTGGGTTCTAACCTGTTGCCT (site ATGTATTCTAG),0.828
16,CTAAGGCCTTGGGTTCTAACCTGTTGCCT (site CTAAGGCCTAG),0.162
17,AACTAAACTTGGGTTCTAACCTGTTGCCT (site AACTGAACTAG),0.181
18,CTACAAGCTTGGGTTCTAACCTGTTGCCT (site CTTCAAGCTAG),0.177
19,GGAAAGACTTGGGTTCTAACCTGTTGCCT (site GGTAAGACTAG),0.505
20,GGCCGGGCTTGGGTTCTAACCTGTTGCCT (site GGCCGGTCTAG),0.0839
